{"source": "patent US20210071180A1", "about": "“MICRORNA 584-5P COMPOSITIONS AND METHODS FOR TREATING CANCER” (BOARD OF REGENTS, THE UNIVERSY OF TEXAS SYSTEM, priority 2018, published 2021)", "format_in_all_cases": "cell-based", "key": {"neural stem cell markers": {"tested_on": "neural stem cell markers", "test": "qPCR analysis of neural stem cell markers", "conditions": "miR-584-5p mimic-transfected cells", "experimental": "Several research groups have posited the presence of tumor-initiating cells in MBs (Manoranjan, B. et al. Pediatr Res 71, 516-522, (2012)). Moreover, the tumor-initiating cells in general have not responded to radiation and chemotherapy drugs (Manoranj an, B. et al. Pediatr Res 71, 516-522, (2012)). Therefore, it was tested whether miR-584 may inhibit MB tumor-initiating cell proliferation. Consistent with the characteristics of tumor-initiating cells, MB cells cultured in serum-free stem cell media formed tumor spheres that were serially passaged for many cycles (FIG. 14A). Bar graphs show number and size of medullospheres obtained from D556Med cells transfected with miR-NC or miR-584-5p mimic. The p-value was calculated using a standard Student t-test. Error bars represent mean±SEM. […] The p-value was calculated using one-way ANOVA followed by Sidak's multiple-comparisons test. Error bars represent mean±SEM. These findings are highly significant because, this study is one of the first to propose a role for miR-584-5p and its target genes in regulating MB stem cell proliferation."}, "PGC-1α": {"tested_on": "PGC-1α", "test": "qRT-PCR of PGC-1α expression", "conditions": "miR-584-5p-treated MB cells", "source_text": "One such gene is peroxisome proliferator-activated receptor gamma coactivator 1-α, which codes for PGC-1α protein, which HDAC1 inhibits in brown adipocytes (Li, F. et al. J Biol Chem 291, 4523-4536, (2016)). The results disclosed herein reveal that PGC-1α expression is increased in miR-584-5p-treated MB cells (FIG. 10). […] The data in FIG. 10 represent Log 2 ratio tumor/cerebellum control. Data mined from GSE28245. ***, p<0.001; ** , p<0.01; * , p<0.05.\nVCR disrupts the integrity of the mitotic spindle and destabilizes microtubules (George, P., Journey, L. J. & Goldstein, M. N. J Natl Cancer Inst 35, 355-375 (1965)). Therefore, it was tested whether miR-584-5p and its target genes might affect microtubule dynamics. First, expression of tubulins was deteremined because VCR resistance has been associated with altered expression of tubulin isotypes (Sirotnak, F. M., Danenberg, K. D., Chen, J., Fritz, F. & Danenberg, P. V. Biochem Biophys Res Commun 269, 21-24, (2000)). […] In FIG. 12A, the p-values were calculated using standard Student t-tests. Error bars represent mean±SEM. ****, p<0.0001. […] The p-values were calculated using standard Student t-tests. Error bars represent mean±SEM. […] In FIG. 11F, the p-values were calculated using standard Student t-tests. […] In FIG. 11H, The p-values were calculated using standard Student t-tests. […] Quantitative real-time PCR. […]"}, "D556Med cells": {"tested_on": "D556Med cells", "test": "c-Myc overexpression rescue, cell viability/clonogenic/migration", "conditions": "cells transfected with c-Myc expression vector", "experimental": "FIG. 15A depicts a photomicrograph showing migrated MB cells transfected with control plasmid, c-Myc overexpression plasmid or c-Myc overexpression plasmid+miR-584-5p mimic.\nBecause c-Myc supports cancer stem cell growth, promotes radioresistance (Gravina, G. L. et al. Radiat Res 185, 411-422, (2016)), and has elevated levels in VCR-resistant cancer cells (He, Y., Zhang, J., Zhang, J. & Yuan, Y. Chin Med J (Engl) 113, 848-851 (2000)), it was tested whether miR-584-5p and its target genes may regulate c-Myc-amplified MB growth and therapy sensitization by targeting c-Myc levels/functions. […] In FIG. 14D, the p-values were calculated using standard Student t-tests. Error bars represent mean±SEM. Because no predicted miR-584-5p binding site exists in the c-Myc 3′-UTR, miR-584-5p probably regulates c-Myc levels indirectly. To test that possibility, it was assessed whether miR-584-5p target genes may regulate c-Myc levels in MB. Moreover, eIF4E1 (not eIF4E3) induced c-Myc protein expression in diffuse B-cell lymphoma cells (Landon, A. L. et al. Nat Commun 5, 5413, (2014)). […] Cell viability was assessed using alamarBlue. The p-value was calculated using one-way ANOVA followed by Sidak's multiple-comparisons test. […]"}}, "data": [{"substance": "miR-584-5p: microRNA mimic; nucleotide sequence UUAUGGUUUGCCUGGGACUGAG (SEQ ID NO: 1); purchased from Thermofisher (chemistry not given here)", "values": [{"measurement": "levels of neural stem cell markers", "setting": "neural stem cell markers", "value": "significantly reduced"}, {"measurement": "PGC-1α expression", "setting": "PGC-1α", "value": "increased"}, {"measurement": "growth-promoting effect of c-Myc overexpression", "setting": "D556Med cells", "value": "rescues cancer growth-promoting effects of c-Myc"}]}]}
